These results are taken from patent publication US9833423B2 (KOREA RESEARCH INSTITUTE OF CHEMICAL TECHNOLOGY, priority 2011, dated 2017).

Molecules are shown by their SMILES. Converted amounts (≈) assume the structure as drawn. Read-outs that look alike come from different tables or passages of the source. A value given as a limit tells only on which side of the number the result lay.

The subject of data set [1] is 48 rhinovirus types and coxsackievirus A21, B3, enterovirus 70 and echovirus 11. To be noted: cited from earlier work.
The conditions of data set [2]: in vivo; cited from earlier work.
The conditions of data set [3]: in vivo; cited from earlier work. This is another data set of the same source.
The conditions of data set [4]: cited from earlier work.
For data set [5] the following is noted: in vivo, cited from earlier work.
The test system of data set [6] is Coxsackie-virus B1. In words: Cytopathic effect (CPE) inhibition assay. The format is cell-based, Coxsackievirus B1. The following applies: Enterovirus B, HeLa37, 48 h.
For data set [7], the system named is Coxsackie-virus B3. In words: Cytopathic effect (CPE) inhibition assay. To be noted: Enterovirus B, HeLa37, 48 h. The format is cell-based, Coxsackievirus B3. For orientation: Cytopathic effects are the visible damage that an infection or toxin causes in cultured cells.
Data set [8] concerns Entero-virus 70. Nature of the data set: Cytopathic effect (CPE) inhibition assay. The data set is classed as cell-based, Enterovirus 70. The following applies: Enterovirus D, MRC5, 48 h; Table 3; MRC-5, 37° C., 2 days.
Data set [9] can be described thus: in vitro. To be noted: human, CC50.
The nature of data set [10]: Cytotoxicity (CC50) in mock-infected cells, MTT assay, Experimental Example 1. To be noted: human. Background: Tetrazolium dyes change colour on reduction, which living cells bring about.
[11] abbreviates: read-out: Coxsackie-virus B1 EC50.
[12] abbreviates: read-out: Coxsackie-virus B3 EC50.

Turning to `CCOC(=O)/C=C/[C@H](C[C@@H]1CCNC1=O)NC(=O)[C@@H](CC(=O)[C@@H](NC(=O)c1cc(C)on1)C(C)C)Cc1ccc(F)cc1` [AG 7088], the “concentration range with an effect in the cell culture” value in data set [1] is given as “nanomolar concentration range”.

Consider `Cc1cc(CCCCCOc2c(Cl)cc(C3=NCCO3)cc2Cl)on1` [WIN 54954], for which, in data set [2], the metabolization and excretion result is “rapid”. Moreover, the side effects entry in data set [3] was “skin rash”.

`CC(C)S(=O)(=O)n1c(N)nc2ccc(/C(=N/O)c3ccccc3)cc21` [Enviroxime]: in [4] (clinical studies), the “therapeutic effects in clinical studies” value was “insignificant or few therapeutic effects”. In addition, in data set [4] (in vivo), the “pharmacokinetics in clinical studies” value is “bad” and the “side effects in clinical studies” value is listed as “unwanted side effects”.

For the compound `Cc1cc(CCCCCCCOc2ccc(C3=NCCO3)cc2)on1` [disoxaril], the bioavailability entry in [5] is recorded as “low”. Further, the metabolization and excretion result in [2] was “rapid”.

One may read the EC50 as the concentration needed to bring the measured effect to its halfway point. Usually melting point stands for the temperature, or range, at which the solid turns liquid. As for `CCc1ccc(C2(OC(C)=O)C(=O)c3ccccc3C2=O)c(OC(C)=O)c1` [Example 6, 2-(2-Acetoxy-1,3-dioxo-2,3-dihydro-1H-inden-2-yl)-5-ethylphenyl acetate], the melting point was 136 to 137 °C. The EC50 in [6] (Table 3, HeLa, 37° C., 2 days, read-out: EC50 Coxsackie-virus B1) was less than 0.01 µg/mL. Moreover, the EC50 in [7] (Table 3, HeLa, 37° C., 2 days, read-out: EC50 Coxsackie-virus B3) is 0.035 µg/mL. This compound also returned a concentration giving a half-maximal response (EC50) in data set [8] of less than 0.01 µg/mL. In data set [9], this compound had a CC50 of 23.5 µg/mL.

Turning to `CNC(=O)Oc1cc(C(C)C)ccc1C1(NC(C)=O)C(=O)c2ccccc2C1=O` [Example 97, 2-(2-Acetamido-1,3-dioxo-2,3-dihydro-1H-inden-2-yl)-5-isopropylphenyl methylcarbamate], the EC50 in data set [6] (setting [11]) and in data set [7] (setting [12]) was less than 0.01 µg/mL in each case. The CC50 in data set [10] amounted to 45.1 µg/mL (≈ 114 µM).

In the case of `Cc1cc(CCCOc2c(C)cc(-c3noc(C(F)(F)F)n3)cc2C)on1` [Pleconaril], the oral bioavailability result in data set [5] (po) is “very good”.

For `CC(=O)NC1(c2ccc(C(C)C)cc2OC(=O)N(C)C)C(=O)c2cccc(N)c2C1=O` (stereo not shown) [Example 100, 2-(2-Acetamido-4-amino-1,3-dioxo-2,3-dihydro-1H-inden-2-yl)-5-isopropylphenyl dimethylcarbamate], the EC50 in [6] (setting [11]) and in data set [7] (setting [12]) was less than 0.01 µg/mL throughout. This compound returned a CC50 in [10] of more than 100 µg/mL.

Consider `CC(C)c1ccc(C2(OC(=O)N(C)C)C(=O)c3ccccc3C2=O)c(OC(=O)N(C)C)c1` [Example 31, Dimethyl-carbamic acid 2-(2-dimethylcarbamoyloxy-1,3-dioxo-indan-2-yl)-5-isopropyl-phenyl ester], for which the melting point was in the range of 203 to 205 °C. Further, the CC50 in data set [10] is more than 100 µg/mL.

For the compound `CC(=O)NC1(c2ccc(C(C)C)cc2OC(=O)N(C)C)C(=O)c2ccccc2C1=O` [Example 98, Dimethyl-carbamic acid 2-(2-acetylamino-1,3-dioxo-indan-2-yl)-5-isopropyl-phenyl ester], the EC50 in data set [6] (setting [11]) worked out at 0.013 µg/mL (≈ 0.0318 µM). This compound also gave a CC50 in data set [10] of more than 100 µg/mL.

Turning to `CC(=O)Oc1cc(C)c(C)cc1C1(OC(C)=O)C(=O)c2ccccc2C1=O` [Example 2, 2-(2-Acetoxy-1,3-dioxo-2,3-dihydro-1H-inden-2-yl)-4,5-dimethylphenyl acetate], the melting point lay within 206 to 207 °C. The compound further gave an EC50 in [8] of less than 1 µg/mL. In data set [9], this compound yielded a CC50 of more than 100 µg/mL.

On to `CCC(=O)C(CCCCCCOc1ccc(OC)cc1Cl)C(=O)CC` [arildone], for which the bioavailability entry in [5] was “low”.
